Source: publication PMC10657973 (Journal of Pharmaceutical Analysis, 2023)
Entries after “also recorded” stand apart in the source; their conditions may differ.

Experiments:
[1] = Correlation between biomarkers and cefmetazole pharmacokinetics in rats; type: in vivo
rMRP4 [2] = type: in vivo, rats
OAT1 [3] = molecular target: T1, OAT1 (Homo sapiens, UniProt Q4U2R8); assay: Transport kinetics of UTs in HEK293T-OAT1 cells; type: cell-based
T1 sequence (Q4U2R8 1-563): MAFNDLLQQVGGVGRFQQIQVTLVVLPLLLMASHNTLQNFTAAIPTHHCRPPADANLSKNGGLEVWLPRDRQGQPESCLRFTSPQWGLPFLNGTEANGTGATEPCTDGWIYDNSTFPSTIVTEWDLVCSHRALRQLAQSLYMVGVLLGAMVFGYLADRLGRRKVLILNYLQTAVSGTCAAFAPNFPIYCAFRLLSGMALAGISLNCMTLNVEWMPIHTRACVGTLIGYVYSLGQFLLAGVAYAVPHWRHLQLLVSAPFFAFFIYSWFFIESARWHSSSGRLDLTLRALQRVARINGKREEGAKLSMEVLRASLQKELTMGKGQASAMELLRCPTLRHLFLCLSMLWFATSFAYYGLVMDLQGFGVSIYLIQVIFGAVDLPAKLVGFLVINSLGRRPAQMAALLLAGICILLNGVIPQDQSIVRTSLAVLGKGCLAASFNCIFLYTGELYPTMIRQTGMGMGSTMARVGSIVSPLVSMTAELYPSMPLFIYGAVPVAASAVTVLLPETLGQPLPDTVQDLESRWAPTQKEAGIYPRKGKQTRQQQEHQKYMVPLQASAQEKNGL

MRP2 = assay: Accumulation of kynurenic acid in MRP2-overexpressing cells; type: cell-based; conditions: Fig. S15
rOATs = rOATs inhibition experiment
OAT3 [4] = molecular target: T2, OAT3 (Homo sapiens, UniProt Q8TCC7); assay: Uptake of UTs in HEK293T-OAT3 cells; type: cell-based; conditions: 100 μM, 30 min; for uptake of HSA-bound UT in OAT3-overexpressing cells vs control cells / uptake of free UT in OAT3-overexpressing cells vs control cells: 37 °C; for uptake of HSA-bound UT in OAT3-overexpressing cells vs control cells: with HSA; for uptake of free UT in OAT3-overexpressing cells vs control cells: without HSA
T2 sequence (Q8TCC7 1-542): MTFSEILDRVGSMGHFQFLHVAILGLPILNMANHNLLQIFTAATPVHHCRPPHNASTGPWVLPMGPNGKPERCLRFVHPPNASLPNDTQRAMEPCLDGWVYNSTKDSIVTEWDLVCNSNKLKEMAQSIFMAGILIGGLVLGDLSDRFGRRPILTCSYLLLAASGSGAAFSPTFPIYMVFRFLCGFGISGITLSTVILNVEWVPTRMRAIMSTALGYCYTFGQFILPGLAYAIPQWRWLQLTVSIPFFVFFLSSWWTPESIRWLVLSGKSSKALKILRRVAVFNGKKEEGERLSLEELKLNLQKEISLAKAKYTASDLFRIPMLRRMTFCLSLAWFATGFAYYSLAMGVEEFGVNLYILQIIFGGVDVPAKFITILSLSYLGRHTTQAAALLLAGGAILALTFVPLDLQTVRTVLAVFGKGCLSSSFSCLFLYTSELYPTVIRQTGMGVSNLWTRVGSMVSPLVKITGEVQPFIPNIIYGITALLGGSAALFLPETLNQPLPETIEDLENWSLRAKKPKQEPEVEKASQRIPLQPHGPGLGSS

OAT1 [5] = molecular target: T1, OAT1; assay: Uptake of UTs in HEK293T-OAT1 cells; type: cell-based; conditions: 100 μM, 30 min; for uptake of HSA-bound UT in OAT1-overexpressing cells vs control cells / uptake of free UT in OAT1-overexpressing cells vs control cells: 37 °C; for uptake of HSA-bound UT in OAT1-overexpressing cells vs control cells: with HSA; for uptake of free UT in OAT1-overexpressing cells vs control cells: without HSA
[6] = type: in vivo, rats
rOAT1/3 = assay: rOAT1/3−/− rat experiment; type: in vivo, rats
MRP4 = assay: Intracellular accumulation of UTs in MRP4-overexpressing cells; type: cell-based, human; conditions: 100 μM, 30 min
OAT4 = assay: Specificity: uptake in OAT4-overexpressing cells; type: cell-based
P-gp = assay: Specificity: uptake in P-gp-overexpressing cells; type: cell-based; conditions: uptake in overexpressing cells vs control, 4 mM ATP
rMRP4 [7] = type: in vivo, rats; remark: listed apart in the source
[8] = tested on: OAT1/3 and MRP4 double-transfected MDCK cells; conditions: 37 °C
MATE1 = assay: Specificity: uptake in MATE1-overexpressing cells; type: cell-based; conditions: uptake in overexpressing cells vs control, pH 8.0
OAT2 = assay: Specificity: uptake in OAT2-overexpressing cells; type: cell-based; conditions: uptake in overexpressing cells vs control
URAT1 = assay: Specificity: uptake in URAT1-overexpressing cells; type: cell-based; conditions: uptake in overexpressing cells vs control
OAT3 [9] = molecular target: T2, OAT3; assay: Transport kinetics of UTs in HEK293T-OAT3 cells; type: cell-based; conditions: read-out: Km of OAT3-mediated uptake; HEK293T-OAT3, Michaelis-Menten
MATE2-K = assay: Specificity: uptake in MATE2-K-overexpressing cells; type: cell-based; conditions: uptake in overexpressing cells vs control, pH 8.0
OATP4C1 = assay: Specificity: uptake in OATP4C1-overexpressing cells; type: cell-based; conditions: uptake in overexpressing cells vs control
OCT2 = assay: Specificity: uptake in OCT2-overexpressing cells; type: cell-based; conditions: uptake in overexpressing cells vs control
PEPT2 = assay: Specificity: uptake in PEPT2-overexpressing cells; type: cell-based; conditions: uptake in overexpressing cells vs control

O=C(O)c1cc(=O)c2ccccc2[nH]1 [Kynurenic acid, kynurenic acid]
plasma concentrations in rats treated with PROB ([1]; PROB 60 and 120 mg/kg 7 days, cefmetazole 100 mg/kg i.v.): increased
correlation of cmax with cefmetazole ([1]; WT and rOAT1/3−/− rats): moderate
plasma level in rOAT1/3−/− rats vs WT rats ([1]; rat, in vivo): markedly increased
efflux from hepatocytes into the blood after rMRP4−/− (rMRP4 [2]; Fig. S9): hindered
renal clearance rate in rMRP4−/− rats vs WT (rMRP4 [2]; rat, in vivo): did not change significantly
renal tissue concentration in rMRP4−/− rats vs WT (rMRP4 [2]; rat, in vivo): unaffected
serum levels in rMRP4−/− rats vs WT (rMRP4 [2]; rat, in vivo): did not change significantly
linear uptake time (OAT1 [3]; HEK293T-OAT1/3 cells, 100 μM): 0 to 10 min
substrate of MRP2 (MRP2): potential substrate of MRP2
serum levels in rats treated with PROB vs control (rOATs; PROB 30, 60, 120 mg/kg oral, 7 days): increased
uptake at 4 °C in OAT3-overexpressing cells vs control (OAT3 [4]): no significant difference
uptake of HSA-bound UT in OAT3-overexpressing cells vs control cells (OAT3 [4]): dramatically increased
uptake of free UT in OAT3-overexpressing cells vs control cells (OAT3 [4]): dramatically increased; also recorded: significantly higher
uptake at 4 °C in OAT1-overexpressing cells vs control (OAT1 [5]): no significant difference
uptake of HSA-bound UT in OAT1-overexpressing cells vs control cells (OAT1 [5]): dramatically increased
uptake of free UT in OAT1-overexpressing cells vs control cells (OAT1 [5]): dramatically increased; also recorded: significantly higher
half-life ([6]; rat, urine, iv, 2 mg/kg): 3.7 ± 0.7 h
rate of metabolism to (d4-)xanthurenic acid in vivo ([6]; rats, d5-kynurenic acid 2 mg/kg i.v.): < 12%
renal clearance rate in rOAT1/3−/− rats vs WT (rOAT1/3; rat, in vivo): significantly decreased
serum levels in rOAT1/3−/− rats vs WT (rOAT1/3; rat, in vivo): significantly increased
uptake at 4 °C in MRP4-overexpressing cells vs control (MRP4): no significant difference
transport mediated by OAT4 / uptake in OAT4-overexpressing cells vs control (OAT4): not mediated
transport mediated by P-gp (P-gp): not mediated
levels in renal tissues in rats treated with MK-571 vs control (rMRP4 [7]; MK-571 5, 10, 20 mg/kg oral, 7 days): significantly increased
uptake at 37 °C in OAT3-MRP4 cells vs double control cells [8]: significantly increased

O=C(O)CNC(=O)C=Cc1ccccc1 [N-(cinnamoyl)glycine]
transport mediated by MATE1 (MATE1): not mediated
transport mediated by OAT2 (OAT2): not mediated
Km (OAT1 [3]; read-out: Km of OAT1-mediated uptake, HEK293T-OAT1, Michaelis-Menten): 4.26 mM
cumulative urinary excretion in rats treated with PROB vs control (rOATs; 12 h urine): no significant effects
serum level in vivo (detectability by LC-MS/MS) (rOATs; rats / in vivo): below the detection limit
uptake at 4 °C in OAT3-overexpressing cells vs control (OAT3 [4]): not significantly different
uptake of HSA-bound UT in OAT3-overexpressing cells vs control cells (OAT3 [4]): dramatically increased
uptake of free UT in OAT3-overexpressing cells vs control cells (OAT3 [4]): dramatically increased; also recorded: significantly elevated
transport mediated by URAT1 (URAT1): not mediated
Km (OAT3 [9]): 2.98 mM
uptake at 4 °C in OAT1-overexpressing cells vs control (OAT1 [5]): not significantly different
uptake of HSA-bound UT in OAT1-overexpressing cells vs control cells (OAT1 [5]): dramatically increased
uptake of free UT in OAT1-overexpressing cells vs control cells (OAT1 [5]): dramatically increased; also recorded: significantly elevated
cumulative excretion, WT rats (rOAT1/3; first value of the printed pair, taken as WT, 12-h urine): 16.16 ± 5.27
cumulative excretion, rOAT1/3−/− rats (rOAT1/3; second value of the pair, taken as knockout, 12-h urine): 8.56 ± 3.43
transport mediated by MATE2-K (MATE2-K): not mediated
uptake at 4 °C in MRP4-overexpressing cells vs control (MRP4): not significantly different
intracellular accumulation in MRP4-overexpressing cells vs control cells (MRP4; 37 °C, 4 mM ATP): significantly decreased; also recorded: markedly reduced
transport mediated by OAT4 / uptake in OAT4-overexpressing cells vs control (OAT4): not mediated
transport mediated by P-gp (P-gp): not mediated
transport mediated by OATP4C1 (OATP4C1): not mediated
cumulative urinary excretion in rats treated with MK-571 vs control (rMRP4 [7]; MK-571 (CMPF effect at 20 mg/kg)): not affected
transport mediated by OCT2 (OCT2): not mediated
transport mediated by PEPT2 (PEPT2): not mediated
